This is an account of results in US20240307427A1 (priority 2023, published 2024).

For data set [1], the system named is SARS-COV-2. The conditions noted are these: in vitro, human precision-cut lung slices; cited from earlier work.
The conditions of data set [2]: deposited dose 0.35 mg/kg by inhalation vs 10 mg/kg intravenous, African green monkeys; cited from earlier work.
The test system of data set [3] is A549 cells. As to the kind of experiment: MTT cell viability assay. The conditions noted are these: 24 hours, 0.05 to 10 μM. The procedure: A549 cells were cultured in DMEM/F12 medium supplemented with 10% (v/v) FBS and 1% (v/v) antibiotic-antimycotic at 37° C. in a humidified incubator with 5% CO2. On the day prior to treatment addition, approximately 2×10^4 cells/well were seeded into 96-well plates and incubated overnight. […] Upon the treatment, the cells were incubated with 200 μL of MTT reagent (0.8 mg/mL) for 3 hours at 37° C. 100 μL of isopropyl alcohol was then added to each well to solubilize the formazan dye crystals and the absorbance at 570 nm was measured using a microplate spectrophotometer (Thermo Scientific™ Multiskan™ GO, Thermo-Fisher, Waltham, MA, USA). Cell viability (%) was calculated by dividing the absorbance of treated cells by the absorbance of cells from the control group with equivalent concentration of DMSO as the treatment group. Six replicates were made for each concentration and the whole MTT assay was repeated in triplicate.

Data set [4] can be described thus: Equilibrium solubility measurement in organic solvents. The class given is physicochemical. The conditions noted are these: 25 °C, organic solvent or mixture, thermodynamic from solid. The procedure:
10 μL samples were injected onto the column.
Samples were filtered through 0.45 μm membrane filters, followed by dilution to appropriate concentrations for the HPLC assay.

For data set [5] the following is noted: intravenous doses, healthy subjects, cited from earlier work.
The conditions of data set [6]: cited from earlier work.
The nature of data set [7]: pH determination during dissolution in simulated lung fluid. The class given is physicochemical. The conditions noted are these: equimolar amount (0.017 mol) in 20 mL SLF, initial pH 7.4, 37° C. The procedure: The solution containing the samples was stirred at 75 rpm with a magnetic bar at 37° C., followed by in situ pH measurement at designated time points, i.e., 2 s, 5 s, 10 s, 15 s, 30 s, 45 s, 1 min, 1.5 min, 2 min, 3 min, 5 min, and 10 min, using a pH meter (Lab 850, Schott Instruments, United Kingdom).

Data set [8] is described as follows: In-vitro drug release study in pH 7.4 simulated lung fluid. The class given is physicochemical. The conditions noted are these: 20 mL pH 7.4 SLF3, 37° C., 75 rpm, LAG cocrystal <63 μm, n=3.

Values after ≈ are worked out from the molar mass of the structure shown. Where two headings read alike, the source gives them in different places.

For `CC(=O)Oc1ccccc1C(=O)O` [ASA, acetylsalicylic acid], the SARS-COV-2 viral replication entry in data set [1] is recorded as “inhibit SARS-COV-2 viral replication”.
Turning to `CCC(CC)COC(=O)[C@H](C)N[P@](=O)(OC[C@H]1O[C@@](C#N)(c2ccc3c(N)ncnn23)[C@H](O)[C@@H]1O)Oc1ccccc1` [RDV, Remdesivir], in data set [2], the “lung RDV triphosphate levels, inhaled vs intravenous” value is on record as “similar”. The cell viability entry in data set [3] is on record as “around 100%”. Moreover, the solubility at 72 h in data set [4] (Acetone) was 66.4 ± 5.34 mg/mL (≈ 110 mM); in data set [4] (Acetonitrile), 5.68 ± 0.6 mg/mL (≈ 9.43 mM); in data set [4] (Chloroform), 3.86 ± 0.3 mg/mL (≈ 6.41 mM); in data set [4] (Ethanol), 34.2 ± 2.29 mg/mL (≈ 56.7 mM); in data set [4] (Methanol) it was 191 ± 13.3 mg/mL (≈ 317 mM). The figures for the “highest plasma concentration of RDV observed” value in data set [5] and in data set [5] (converted value) were 4420 ng/mL and around 7.8 µM, respectively. In data set [6] (background statement), the aqueous solubility is reported as below 0.03 mg/mL. Also, in data set [6] (water at 25° C.), the solubility in water was 0.028 mg/mL (≈ 0.0465 mM).
For `CCC(CC)COC(=O)C(C)NP(=O)(OCC1OC(C#N)(c2ccc3c(N)ncnn23)C(O)C1O)Oc1ccccc1.O=C(O)c1ccccc1O` (stereo not drawn) [RDV−SA, cocrystal of remdesivir and salicylic acid], in data set [7], the “medium pH at end point of dissolution (10 min)” value was 7.41±0.01. In addition, in data set [8], the “RDV dissolved at 120 min” value is given as 71.22%. Moreover, the cell viability entry in data set [3] is on record as “around 100%”.
For `O=C(O)c1ccccc1O` [SA, Salicylic acid], in data set [7], the “medium pH at end point of dissolution (10 min)” value is 7.35±0.03 and the “medium pH in 2 seconds (transient drop)” value is listed as 6.89±0.02. Besides, the SARS-COV-2 viral replication result in data set [1] is “inhibit SARS-COV-2 viral replication”.

A word on the solubility: it is the dissolved amount per volume that the medium holds. As usually defined, the aqueous solubility is the dissolved amount per volume that the medium holds.
